{"source": "patent US11547101B2", "about": "“Non-human animals having a disruption in a C9ORF72 locus” (Regeneron Pharmaceuticals, Inc., priority 2015, dated 2023)", "key": {"[1]": {"test_system": "wild type mice", "assay": "ALS-like phenotype in wild type mice given weekly i.p. BMAA (body weight, rotarod, open field, catwalk)", "assay_type": "in vivo, mouse", "details": "BMAA 500 mg/kg weekly i.p. for six weeks, FIGS. 5A-5D", "description": "In another experiment, wild type mice were administered weekly i.p. injections of BMAA (500 mg/kg) or PBS (control) for six weeks starting at week 1 (FIG. 5A, top). Body weight measurements were recorded each week up to 6 weeks, week 14 and week 18. Analysis of motor impairment via rotarod, open field locomotor, and catwalk testing (as described above) were recorded at the start of the experiment (week 0, 10-weeks old), every other week up to 6 weeks, week 14 and week 18."}, "[2]": {"test_system": "cultured wild type motor neurons", "assay": "Survival of cultured embryonic stem cell-derived wild type motor neurons treated with BMAA (cell counts, trypan blue)", "assay_type": "cell-based, mouse", "details": "wild type motor neurons in ESMN with BMAA at 0.1-100 μM; FIG. 4", "description": "Briefly, mouse embryonic stem cells are cultured and differentiated into motor neurons, during an eight-day period. The first day, previously frozen mouse embryonic stem cells are thawed and added to a 15 mL falcon tube with five mL of embryonic stem cell medium (ES medium: DMEM with 15% FBS, 1% pen/strep., 1% glutamine, 1% non-essential amino acids, 1% nucleosides, 0.1% β-mercaptoethanol, 1% sodium-pyruvate, and LIF at 10000 unit/mL), The tube is then centrifuged for five minutes at 800 rpm. The supernatant is aspirated and the cells suspended in 10 mL of ES medium. The cells are then plated on a T75 flask that is coated with 10 mL of 0.1% gelatin and incubated for 30 minutes at 37° C. to facilitate attachment to the flask bottom. The cells are then incubated overnight. The following day the medium exchanged with fresh medium for survival.\nThe following day medium is aspirated from the flask. The flask is washed with 10 mL of PBS, and then 5 mL of trypsin is added to detach the cells from the bottom of the flask. The cells are incubated for five minutes at 37° C. Detachment is confirmed by checking the flask under a microscope. […]\nAfter three days embryoid bodies (EB) that form are dissociated. […] The cells are then counted using a Countess automatic cell counter (Life Technologies) and 0.5 to 1 million cells are plated with 2 mL ESMN medium per well in each six well plate. […]"}, "[3]": {"test_system": "C9orf72−/− motor neurons", "assay": "Oxidative stress (ROS, CellROX Green) of cultured C9orf72−/− motor neurons exposed to BMAA", "assay_type": "cell-based, mouse", "details": "100 mM BMAA, measured at days 1 and 7, FIG. 7", "description": "In another experiment, motor neurons from C9orfF72^−/− mice were cultured as described above (see also FIG. 7) and treated with antisense oligonucleotides that selectively target sense strand repeat-containing RNAs and reduce sense-oriented RNA foci without affecting overall C9orf72 expression. Treatment was followed by addition of 100 mM BMAA. Survival and oxidative stress of cultured motor neurons were measured at days 1 and 7. Briefly, oxidative stress of plated embryonic stem cell-derived motor neurons (described above) was assessed by measuring the Reactive Oxygen Species (ROS) levels in the cells using Life Technologies' CellROX Oxidative Stress Green reagent at a final concentration of 5 μM and incubating for 30 minutes at 37° C. After incubation, cells were washed three times with PBS and fluorescence was measured using a standard microplate fluorometry."}, "[4]": {"test_system": "C9orf72−/− mice", "assay": "ALS-like phenotype in aged C9orf72−/− mice given weekly i.p. BMAA (body weight, motor scores, rotarod, open field, catwalk)", "assay_type": "in vivo, mouse", "details": "32-week old C9orf72−/− mice, BMAA 500 mg/kg weekly i.p. for six weeks; FIGS. 6A-6E", "description": "In another experiment, aged (i.e., 32-week old) wild type and C9orf72^−/− mice were administered weekly i.p. injections of BMAA (500 mg/kg) or PBS (control) for six weeks. Body weight measurements were recorded each week up to 38 weeks starting at day zero (i.e., 32 weeks). Analysis of motor impairment via rotarod, open field locomotor, and catwalk testing (as described above) were also recorded at the start of the experiment (week 0, […]) and every other week up to 38 weeks. Table 6 sets forth the scoring methodology related to motor impairment, tremor and rigidity of animals during testing."}}, "data": [{"compound": "CNC[C@H](N)C(=O)O", "note": "[BMAA, β-Methylamino-L-alanine]", "values": [{"measurement": "induction of ALS-like phenotype", "setting": "[1]", "result": "did not induce an ALS-like phenotype"}, {"measurement": "survival of cultured motor neurons (percentage of live neurons to control)", "setting": "[2]", "result": "kills cultured wild type motor neurons in a dose-dependent manner"}, {"measurement": "oxidative stress (Reactive Oxygen Species levels)", "setting": "[3]", "result": "increased oxidative stress"}, {"measurement": "effect on ALS-like motor phenotype", "setting": "[4]", "result": "mildly exacerbates"}, {"measurement": "effect on increased inactivity and gait abnormalities", "setting": "[4]", "result": "does not affect"}]}]}
